Reference: PubChem BioAssay AID1845203 (Molecular Pharmacology Branch, DTP, NCI, 2023)
pIC50: −log10 of the molar value.

System: G-401 tumor spheroids, viability % test/control
Assay: Anticancer human tumor G-401 cell line growth inhibition;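 further: spheroids exposed to compound for 7 days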;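 on viability, T/C: 100% = DMSO vehicle-treated spheroids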
Details: spheroids with HUVEC and MSC; for pIC50: curve of first compound; for viability, T/C: stronger effect = lower value
How it was run: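 Complex spheroids of malignant cells with endothelial cells and mesenchymal stem cells; agents alone or combined, from near clinical Cmax (or 10 microM if unknown) down in half-log steps, 0.25% DMSO final.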

With CNCc1ccc(-c2cc(-c3nc(-c4ccc(S(=O)(=O)C(C)C)cc4)cnc3N)on2)cc1 + Cn1nnc2c(C(N)=O)ncn2c1=O the pIC50 (second compound 1 µM) was 5.70, the pIC50 (second compound 3.16 µM) was 5.75 and the pIC50 (second compound 10 µM) was 5.97. The pIC50 (second compound 31.6 µM) was 6.04, the pIC50 (second compound 100 µM) was 6.49 and the viability, T/C (second compound 1 µM, first compound 0.00949 µM) was 105%. It also gave a viability, T/C (second compound 1 µM, first compound 0.03 µM) of 108%, a viability, T/C (second compound 1 µM, first compound 0.0949 µM) of 106% and a viability, T/C (second compound 1 µM, first compound 0.3 µM) of 106%. The viability, T/C (second compound 1 µM, first compound 0.949 µM) was 72.7%, the viability, T/C (second compound 1 µM, first compound 3 µM) was 37.8% and the viability, T/C (second compound 3.16 µM, first compound 0.00949 µM) was 109%. It also gave a viability, T/C (second compound 3.16 µM, first compound 0.03 µM) of 105%, a viability, T/C (second compound 3.16 µM, first compound 0.0949 µM) of 104% and a viability, T/C (second compound 3.16 µM, first compound 0.3 µM) of 103%. For the same molecule, the viability, T/C (second compound 3.16 µM, first compound 0.949 µM) was 64.1%, the viability, T/C (second compound 3.16 µM, first compound 3 µM) was 38.4% and the viability, T/C (second compound 10 µM, first compound 0.00949 µM) was 103%. The viability, T/C (second compound 10 µM, first compound 0.03 µM) was 97.6%, the viability, T/C (second compound 10 µM, first compound 0.0949 µM) was 100% and the viability, T/C (second compound 10 µM, first compound 0.3 µM) was 99.2%. The viability, T/C (second compound 10 µM, first compound 0.949 µM) was 52.5%, the viability, T/C (second compound 10 µM, first compound 3 µM) was 25.4% and the viability, T/C (second compound 31.6 µM, first compound 0.00949 µM) was 93.9%. The viability, T/C (second compound 31.6 µM, first compound 0.03 µM) was 94.7%, the viability, T/C (second compound 31.6 µM, first compound 0.0949 µM) was 96.2% and the viability, T/C (second compound 31.6 µM, first compound 0.3 µM) was 85.1%. For the same molecule, the viability, T/C (second compound 31.6 µM, first compound 0.949 µM) was 49%, the viability, T/C (second compound 31.6 µM, first compound 3 µM) was 20.4% and the viability, T/C (second compound 100 µM, first compound 0.00949 µM) was 96.3%. The viability, T/C (second compound 100 µM, first compound 0.03 µM) was 98.7%, the viability, T/C (second compound 100 µM, first compound 0.0949 µM) was 90.4% and the viability, T/C (second compound 100 µM, first compound 0.3 µM) was 51.7%. The viability, T/C (second compound 100 µM, first compound 0.949 µM) was 27.1% and the viability, T/C (second compound 100 µM, first compound 3 µM) was 25.7%.
[2H]c1nc(C)nc([2H])c1-c1cc(NC[C@@H](C)c2cccc3c(C(=O)NC)ccnc23)ncn1 + Cn1nnc2c(C(N)=O)ncn2c1=O showed a pIC50 (second compound 1 µM) of less than 5.00, a pIC50 (second compound 3.16 µM) of less than 5.00 and a pIC50 (second compound 10 µM) of less than 5.00. It also gave a pIC50 (second compound 31.6 µM) of less than 5.00, a pIC50 (second compound 100 µM) of less than 5.00 and a viability, T/C (second compound 1 µM, first compound 0.0316 µM) of 101%. It also gave a viability, T/C (second compound 1 µM, first compound 0.1 µM) of 106%, a viability, T/C (second compound 1 µM, first compound 0.316 µM) of 110% and a viability, T/C (second compound 1 µM, first compound 1 µM) of 102%. It also gave a viability, T/C (second compound 1 µM, first compound 3.16 µM) of 107%, a viability, T/C (second compound 1 µM, first compound 10 µM) of 103% and a viability, T/C (second compound 3.16 µM, first compound 0.0316 µM) of 105%. It also gave a viability, T/C (second compound 3.16 µM, first compound 0.1 µM) of 99.3%, a viability, T/C (second compound 3.16 µM, first compound 0.316 µM) of 101% and a viability, T/C (second compound 3.16 µM, first compound 1 µM) of 99.8%. The viability, T/C (second compound 3.16 µM, first compound 3.16 µM) was 105%, the viability, T/C (second compound 3.16 µM, first compound 10 µM) was 103% and the viability, T/C (second compound 10 µM, first compound 0.0316 µM) was 93%. It also gave a viability, T/C (second compound 10 µM, first compound 0.1 µM) of 99.6%, a viability, T/C (second compound 10 µM, first compound 0.316 µM) of 101% and a viability, T/C (second compound 10 µM, first compound 1 µM) of 96%. The viability, T/C (second compound 10 µM, first compound 3.16 µM) was 108%, the viability, T/C (second compound 10 µM, first compound 10 µM) was 94% and the viability, T/C (second compound 31.6 µM, first compound 0.0316 µM) was 96.3%. For the same molecule, the viability, T/C (second compound 31.6 µM, first compound 0.1 µM) was 101%, the viability, T/C (second compound 31.6 µM, first compound 0.316 µM) was 99.7% and the viability, T/C (second compound 31.6 µM, first compound 1 µM) was 100%. It also gave a viability, T/C (second compound 31.6 µM, first compound 3.16 µM) of 94.2%, a viability, T/C (second compound 31.6 µM, first compound 10 µM) of 97.4% and a viability, T/C (second compound 100 µM, first compound 0.0316 µM) of 95.9%. The viability, T/C (second compound 100 µM, first compound 0.1 µM) was 94.8%, the viability, T/C (second compound 100 µM, first compound 0.316 µM) was 105% and the viability, T/C (second compound 100 µM, first compound 1 µM) was 92.8%. For the same molecule, the viability, T/C (second compound 100 µM, first compound 3.16 µM) was 89.6% and the viability, T/C (second compound 100 µM, first compound 10 µM) was 86.5%.
